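Growth conditions: 96-well plates. Treatment: test compound, 48 hours, 5 concentrations. Analysis: linear interpolation between bracketing concentrations; unreached endpoints set to highest concentration. GI50: concentration for 50% inhibition of growth.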 The source made the active and inactive calls. Rule as the data show it: active = GI50 up to about 1.1 µM and inactive = higher.
Experiments:
Assay in all cases: inhibition of tumour cell growth, NCI panel, 48 h
786-0 = test system: 786-0
A498 = test system: A498
A549 = test system: A549
ACHN = test system: ACHN
BT-549 = test system: BT-549
CAKI-1 = test system: CAKI-1
CCRF-CEM = test system: CCRF-CEM
COLO 205 = test system: COLO 205
DU-145 = test system: DU-145
EKVX = test system: EKVX
HCC 2998 = test system: HCC 2998
HCT-116 = test system: HCT-116
HCT-15 = test system: HCT-15
HL-60 = test system: HL-60
HOP-62 = test system: HOP-62
HOP-92 = test system: HOP-92
HT-29 = test system: HT-29
Hs-578T = test system: Hs-578T
IGROV-1 = test system: IGROV-1
K562 = test system: K562
KM12 = test system: KM12
LOX IMVI = test system: LOX IMVI
M14 = test system: M14
MCF7 = test system: MCF7
MDA-MB-231 = test system: MDA-MB-231
MDA-MB-435 = test system: MDA-MB-435
MDA-N = test system: MDA-N
MOLT-4 = test system: MOLT-4
Malme-3M = test system: Malme-3M
NCI-H226 = test system: NCI-H226
NCI-H23 = test system: NCI-H23
NCI-H460 = test system: NCI-H460
NCI-H522 = test system: NCI-H522
NCI/ADR-RES = test system: NCI/ADR-RES
OVCAR-3 = test system: OVCAR-3
OVCAR-4 = test system: OVCAR-4
OVCAR-5 = test system: OVCAR-5
OVCAR-8 = test system: OVCAR-8
PC-3 = test system: PC-3
RPMI-8226 = test system: RPMI-8226
SF-268 = test system: SF-268
SF-295 = test system: SF-295
SF-539 = test system: SF-539
SK-MEL-28 = test system: SK-MEL-28
SK-MEL-2 = test system: SK-MEL-2
SK-MEL-5 = test system: SK-MEL-5
SK-OV-3 = test system: SK-OV-3
SN12C = test system: SN12C
SNB-19 = test system: SNB-19
SNB-75 = test system: SNB-75
SW-620 = test system: SW-620
T47D = test system: T47D
TK-10 = test system: TK-10
U-251 = test system: U-251
UACC-257 = test system: UACC-257
UACC-62 = test system: UACC-62
UO-31 = test system: UO-31

CC(=O)O[C@H]1C[C@H](O[C@H]2[C@@H](O)C[C@H](O[C@H]3[C@@H](O)C[C@H](O[C@H]4CC[C@@]5(C)[C@H](CC[C@@H]6[C@@H]5CC[C@]5(O)[C@@H](C7=CC(=O)OC7)CC[C@]65O)C4)O[C@@H]3C)O[C@@H]2C)O[C@H](C)[C@H]1O[C@@H]1O[C@H](CO)[C@@H](O)[C@H](O)[C@H]1O
GI50 (786-0): 258 nM (active) | GI50 (A498): 383 nM (active) | GI50 (A549): 58.1 nM (active) | GI50 (ACHN): 75 nM (active) | GI50 (BT-549): 304 nM (active) | GI50 (CAKI-1): 132 nM (active) | GI50 (CCRF-CEM): 116 nM (active) | GI50 (COLO 205): 711 nM (active) | GI50 (DU-145): 243 nM (active) | GI50 (EKVX): 233 nM (active) | GI50 (HCC 2998): 1520 nM (inactive) | GI50 (HCT-116): 243 nM (active) | GI50 (HCT-15): 293 nM | GI50 (HL-60): 223 nM (active) | GI50 (HOP-62): 66.4 nM (active) | GI50 (HOP-92): 792 nM (active) | GI50 (HT-29): 286 nM (active) | GI50 (Hs-578T): 348 nM (active) | GI50 (IGROV-1): 356 nM (active) | GI50 (K562): 337 nM (active) | GI50 (KM12): 565 nM (active) | GI50 (LOX IMVI): 271 nM (active) | GI50 (M14): 841 nM (active) | GI50 (MCF7): 520 nM (active) | GI50 (MDA-MB-231): 2350 nM (inactive) | GI50 (MDA-MB-435): 624 nM (active) | GI50 (MDA-N): 450 nM (active) | GI50 (MOLT-4): 26.2 nM (active) | GI50 (Malme-3M): 403 nM (active) | GI50 (NCI-H226): 1290 nM (inactive) | GI50 (NCI-H23): 137 nM (active) | GI50 (NCI-H460): 106 nM (active) | GI50 (NCI-H522): 49.2 nM (active) | GI50 (NCI/ADR-RES): 237 nM (active) | GI50 (OVCAR-3): 349 nM (active) | GI50 (OVCAR-4): 497 nM (active) | GI50 (OVCAR-5): 455 nM (active) | GI50 (OVCAR-8): 452 nM (active) | GI50 (PC-3): 328 nM (active) | GI50 (RPMI-8226): 462 nM (active) | GI50 (SF-268): 358 nM (active) | GI50 (SF-295): 344 nM (active) | GI50 (SF-539): 185 nM (active) | GI50 (SK-MEL-28): 1500 nM (inactive) | GI50 (SK-MEL-2): 498 nM (active) | GI50 (SK-MEL-5): 223 nM (active) | GI50 (SK-OV-3): 555 nM (active) | GI50 (SN12C): 258 nM (active) | GI50 (SNB-19): 771 nM (active) | GI50 (SNB-75): 908 nM (active) | GI50 (SW-620): 407 nM (active) | GI50 (T47D): 553 nM (active) | GI50 (TK-10): 428 nM (active) | GI50 (U-251): 427 nM (active) | GI50 (UACC-257): 597 nM (active) | GI50 (UACC-62): 769 nM (active) | GI50 (UO-31): 391 nM (active)
